Measured values published in ChEMBL document CHEMBL5291721, “A preclinical secondary pharmacology resource illuminates target-adverse drug reaction associations of marketed drugs” (Nat Commun, 2023).
Where a SMILES comes first, the peptide text is derived from it. [ ]: non-standard residue; d: D form. pGlu = O=C1CC[C@@H](C(=O)O)N1; Thz = O=C(O)[C@@H]1CSCN1

Experiments:
[1] = target: T1, Androgen receptor (Rattus norvegicus, UniProt P15207); type: functional
T1 sequence (P15207 whole entry): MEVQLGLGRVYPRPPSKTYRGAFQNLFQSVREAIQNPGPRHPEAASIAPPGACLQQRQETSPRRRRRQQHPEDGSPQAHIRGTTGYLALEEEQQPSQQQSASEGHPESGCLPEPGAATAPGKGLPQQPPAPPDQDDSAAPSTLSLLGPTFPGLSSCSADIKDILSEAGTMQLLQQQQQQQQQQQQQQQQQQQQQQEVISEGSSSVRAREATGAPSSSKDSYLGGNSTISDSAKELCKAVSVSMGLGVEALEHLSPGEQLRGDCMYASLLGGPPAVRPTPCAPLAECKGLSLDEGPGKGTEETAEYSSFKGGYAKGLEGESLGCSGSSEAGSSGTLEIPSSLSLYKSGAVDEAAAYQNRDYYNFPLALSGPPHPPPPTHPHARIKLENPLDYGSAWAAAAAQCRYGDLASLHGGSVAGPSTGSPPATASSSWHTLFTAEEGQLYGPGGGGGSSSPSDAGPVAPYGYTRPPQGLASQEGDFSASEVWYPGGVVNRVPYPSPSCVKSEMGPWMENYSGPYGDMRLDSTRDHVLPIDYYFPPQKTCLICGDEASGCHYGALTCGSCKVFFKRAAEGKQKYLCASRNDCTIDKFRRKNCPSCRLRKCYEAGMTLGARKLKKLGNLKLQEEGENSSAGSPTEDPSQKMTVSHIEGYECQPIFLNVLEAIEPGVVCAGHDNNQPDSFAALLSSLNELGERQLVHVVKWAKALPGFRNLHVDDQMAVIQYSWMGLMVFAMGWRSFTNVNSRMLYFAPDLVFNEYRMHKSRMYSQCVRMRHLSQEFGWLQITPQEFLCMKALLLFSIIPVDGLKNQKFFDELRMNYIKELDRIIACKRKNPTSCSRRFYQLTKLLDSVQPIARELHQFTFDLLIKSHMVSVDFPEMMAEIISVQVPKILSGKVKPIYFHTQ

[2] = target: T1, Androgen receptor; type: functional; remark: listed apart in the source
[3] = target: T1, Androgen receptor
[4] = target: T2, 5-hydroxytryptamine receptor 1A (Homo sapiens, UniProt P08908)
T2 sequence (P08908 whole entry): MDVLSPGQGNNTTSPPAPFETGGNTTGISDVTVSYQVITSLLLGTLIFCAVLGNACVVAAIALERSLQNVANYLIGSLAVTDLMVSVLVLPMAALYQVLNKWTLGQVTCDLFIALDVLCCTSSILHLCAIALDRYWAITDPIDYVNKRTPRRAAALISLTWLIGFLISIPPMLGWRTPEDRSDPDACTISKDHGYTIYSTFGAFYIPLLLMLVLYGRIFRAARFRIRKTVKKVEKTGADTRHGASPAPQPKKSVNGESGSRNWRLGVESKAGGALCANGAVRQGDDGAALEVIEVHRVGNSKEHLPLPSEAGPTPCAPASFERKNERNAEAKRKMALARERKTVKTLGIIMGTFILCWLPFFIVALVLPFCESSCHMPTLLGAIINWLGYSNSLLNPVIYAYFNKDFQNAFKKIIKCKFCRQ

[5] = target: T3, Progesterone receptor (Homo sapiens, UniProt P06401)
T3 sequence (P06401 whole entry): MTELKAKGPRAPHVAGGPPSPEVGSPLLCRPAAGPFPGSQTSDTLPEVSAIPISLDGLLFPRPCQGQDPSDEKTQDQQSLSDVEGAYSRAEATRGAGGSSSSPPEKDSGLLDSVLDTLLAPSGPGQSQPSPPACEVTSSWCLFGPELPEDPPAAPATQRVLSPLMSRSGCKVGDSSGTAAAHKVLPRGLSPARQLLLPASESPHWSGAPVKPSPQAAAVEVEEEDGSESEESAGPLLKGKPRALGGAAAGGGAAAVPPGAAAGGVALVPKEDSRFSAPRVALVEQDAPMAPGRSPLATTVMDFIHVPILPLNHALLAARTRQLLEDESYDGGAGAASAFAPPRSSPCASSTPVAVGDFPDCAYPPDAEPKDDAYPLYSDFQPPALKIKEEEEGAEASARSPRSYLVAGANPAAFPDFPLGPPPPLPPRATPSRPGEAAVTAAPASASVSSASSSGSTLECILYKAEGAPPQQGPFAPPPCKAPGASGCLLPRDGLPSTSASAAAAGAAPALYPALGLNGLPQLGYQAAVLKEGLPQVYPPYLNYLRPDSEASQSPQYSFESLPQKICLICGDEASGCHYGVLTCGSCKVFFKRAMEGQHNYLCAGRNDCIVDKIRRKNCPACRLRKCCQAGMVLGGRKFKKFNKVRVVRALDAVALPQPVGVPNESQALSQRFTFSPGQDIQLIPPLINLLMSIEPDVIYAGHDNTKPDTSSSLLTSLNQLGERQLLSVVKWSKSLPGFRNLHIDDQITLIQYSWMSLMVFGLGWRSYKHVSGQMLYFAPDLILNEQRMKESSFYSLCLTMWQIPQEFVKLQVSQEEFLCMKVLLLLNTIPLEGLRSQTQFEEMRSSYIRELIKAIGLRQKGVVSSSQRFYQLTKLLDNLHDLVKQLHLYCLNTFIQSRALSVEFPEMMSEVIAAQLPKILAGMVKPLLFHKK

[6] = target: Gamma-aminobutyric acid receptor subunit alpha-1/alpha-2/beta-2/gamma-2 (Homo sapiens, UniProt P14867+P18507+P47869+P47870); type: functional, cell-based
[7] = target: D(1A) dopamine receptor (Homo sapiens, UniProt P21728)
[8] = target: T4, Alpha-1A adrenergic receptor (Homo sapiens, UniProt P35348)
T4 sequence (P35348 whole entry): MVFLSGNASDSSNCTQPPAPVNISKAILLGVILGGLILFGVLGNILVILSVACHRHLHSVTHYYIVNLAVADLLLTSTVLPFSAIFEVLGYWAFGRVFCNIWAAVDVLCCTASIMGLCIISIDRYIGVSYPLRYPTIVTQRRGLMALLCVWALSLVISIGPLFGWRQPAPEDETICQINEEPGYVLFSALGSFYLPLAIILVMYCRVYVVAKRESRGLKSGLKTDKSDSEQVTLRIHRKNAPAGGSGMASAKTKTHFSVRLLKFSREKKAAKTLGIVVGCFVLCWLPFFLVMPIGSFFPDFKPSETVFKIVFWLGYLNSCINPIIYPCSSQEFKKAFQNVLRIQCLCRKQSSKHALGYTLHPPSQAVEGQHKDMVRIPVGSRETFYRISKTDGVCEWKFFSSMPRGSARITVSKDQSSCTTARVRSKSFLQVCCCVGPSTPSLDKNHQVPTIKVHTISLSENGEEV
Also: assay procedure not described here.

Sequence of Gamma-aminobutyric acid receptor subunit alpha-1/alpha-2/beta-2/gamma-2 (P14867 whole entry): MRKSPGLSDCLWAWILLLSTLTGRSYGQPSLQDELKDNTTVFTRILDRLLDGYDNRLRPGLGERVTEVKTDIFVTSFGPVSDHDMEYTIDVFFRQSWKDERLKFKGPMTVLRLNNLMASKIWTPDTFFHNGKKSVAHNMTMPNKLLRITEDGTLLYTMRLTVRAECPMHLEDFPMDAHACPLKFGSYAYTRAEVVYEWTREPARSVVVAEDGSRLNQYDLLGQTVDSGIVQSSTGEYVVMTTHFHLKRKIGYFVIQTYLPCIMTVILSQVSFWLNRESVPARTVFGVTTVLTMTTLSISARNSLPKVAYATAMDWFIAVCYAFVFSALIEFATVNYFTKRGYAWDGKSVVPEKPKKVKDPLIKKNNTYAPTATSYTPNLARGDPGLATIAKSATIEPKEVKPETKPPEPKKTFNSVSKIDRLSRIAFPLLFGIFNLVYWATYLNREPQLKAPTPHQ
Sequence of Gamma-aminobutyric acid receptor subunit alpha-1/alpha-2/beta-2/gamma-2 (P47870 whole entry): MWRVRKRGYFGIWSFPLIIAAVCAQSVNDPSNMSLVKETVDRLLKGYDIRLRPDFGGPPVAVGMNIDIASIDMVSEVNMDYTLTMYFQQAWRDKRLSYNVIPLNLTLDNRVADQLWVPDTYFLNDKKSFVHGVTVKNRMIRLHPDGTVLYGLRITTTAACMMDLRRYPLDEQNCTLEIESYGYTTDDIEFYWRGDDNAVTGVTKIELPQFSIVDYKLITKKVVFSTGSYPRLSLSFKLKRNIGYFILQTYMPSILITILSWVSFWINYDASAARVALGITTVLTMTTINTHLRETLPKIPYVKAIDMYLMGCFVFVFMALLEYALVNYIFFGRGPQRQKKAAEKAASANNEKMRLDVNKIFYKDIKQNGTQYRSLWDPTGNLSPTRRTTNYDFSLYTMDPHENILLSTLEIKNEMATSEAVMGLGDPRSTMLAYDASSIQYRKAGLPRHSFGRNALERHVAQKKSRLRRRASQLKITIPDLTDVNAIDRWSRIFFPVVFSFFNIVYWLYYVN
Sequence of Gamma-aminobutyric acid receptor subunit alpha-1/alpha-2/beta-2/gamma-2 (P18507 whole entry): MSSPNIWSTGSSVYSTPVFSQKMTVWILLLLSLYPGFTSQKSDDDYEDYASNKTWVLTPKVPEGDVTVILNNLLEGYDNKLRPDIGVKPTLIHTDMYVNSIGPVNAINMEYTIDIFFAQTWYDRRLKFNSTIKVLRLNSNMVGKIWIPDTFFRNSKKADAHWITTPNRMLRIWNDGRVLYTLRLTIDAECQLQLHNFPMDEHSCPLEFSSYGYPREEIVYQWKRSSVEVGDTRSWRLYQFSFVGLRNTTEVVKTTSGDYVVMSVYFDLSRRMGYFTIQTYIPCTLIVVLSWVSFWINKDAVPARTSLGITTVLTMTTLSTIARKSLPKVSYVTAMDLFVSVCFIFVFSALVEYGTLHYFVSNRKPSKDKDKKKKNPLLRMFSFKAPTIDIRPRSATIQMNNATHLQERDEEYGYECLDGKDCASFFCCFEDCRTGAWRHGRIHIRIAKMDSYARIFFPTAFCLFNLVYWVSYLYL
Sequence of Gamma-aminobutyric acid receptor subunit alpha-1/alpha-2/beta-2/gamma-2 (P47869 whole entry): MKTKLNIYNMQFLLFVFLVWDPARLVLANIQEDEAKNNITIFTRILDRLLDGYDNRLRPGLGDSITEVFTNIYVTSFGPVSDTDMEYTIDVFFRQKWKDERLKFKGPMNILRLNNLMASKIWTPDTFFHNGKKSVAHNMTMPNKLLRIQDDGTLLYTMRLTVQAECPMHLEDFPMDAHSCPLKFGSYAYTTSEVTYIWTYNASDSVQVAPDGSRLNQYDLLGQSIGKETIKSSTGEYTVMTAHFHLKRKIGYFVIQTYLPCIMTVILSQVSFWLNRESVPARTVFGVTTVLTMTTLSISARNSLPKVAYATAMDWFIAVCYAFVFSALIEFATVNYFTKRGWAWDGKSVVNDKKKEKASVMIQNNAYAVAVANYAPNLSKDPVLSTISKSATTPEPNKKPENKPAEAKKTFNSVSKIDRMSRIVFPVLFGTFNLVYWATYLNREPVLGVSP
Sequence of D(1A) dopamine receptor (P21728 whole entry): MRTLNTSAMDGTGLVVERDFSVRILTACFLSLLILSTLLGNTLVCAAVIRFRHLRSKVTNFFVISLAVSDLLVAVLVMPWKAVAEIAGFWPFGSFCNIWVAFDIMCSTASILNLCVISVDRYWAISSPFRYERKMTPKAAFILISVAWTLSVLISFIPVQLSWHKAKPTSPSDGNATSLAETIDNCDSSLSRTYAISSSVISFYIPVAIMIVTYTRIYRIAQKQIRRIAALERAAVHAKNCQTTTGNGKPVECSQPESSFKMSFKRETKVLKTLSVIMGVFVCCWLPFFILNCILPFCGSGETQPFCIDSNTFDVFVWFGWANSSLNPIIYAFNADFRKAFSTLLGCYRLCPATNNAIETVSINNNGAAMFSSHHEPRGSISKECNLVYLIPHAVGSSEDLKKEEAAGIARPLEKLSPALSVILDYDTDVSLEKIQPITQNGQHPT

Row | SMILES | AC50 [1] [µM] | AC50 [2] [µM] | AC50 [3] [µM] | AC50 [4] [µM] | further results
1 | CC(C)N(CCCCOCC(=O)O)c1cnc(-c2ccccc2)c(-c2ccccc2)n1 | > 30 | 19 |  |  | 
2 | CC(=O)c1ccc(S(=O)(=O)NC(=O)NC2CCCCC2)cc1 [ACETOHEXAMIDE] |  |  | > 10 |  | 
3 | COc1cc(C)c(/C=C/C(C)=C/C=C/C(C)=C/C(=O)O)c(C)c1C [ACITRETIN] |  |  | 4.6 |  | 
4 | CCC1(CCC(C)C)C(=O)NC(=O)NC1=O [AMOBARBITAL] |  |  | > 10 |  | 
5 | Cc1cc(=O)n(-c2ccccc2)n1C [ANTIPYRINE] |  |  | > 30 | > 10 | AC50 [5]: > 30 µM
6 | O=C(O)c1ccc(NC(=O)[C@H](Cc2ccc(O)cc2)NC(=O)c2ccccc2)cc1 [BENTIROMIDE] |  |  | > 10 |  | 
7 | Clc1ccc(CCC(Cn2ccnc2)Sc2c(Cl)cccc2Cl)cc1 (centres undefined) [BUTOCONAZOLE] | > 30 | 9.2 |  |  | 
8 | CO/N=C(\C(=O)N[C@@H]1C(=O)N2C(C(=O)O)=C(CSc3nc(=O)c(=O)[nH]n3C)CS[C@H]12)c1csc(N)n1 [CEFTRIAXONE] |  |  |  |  | AC50 [6]: > 30 µM
9 | COc1cc(N)c(Cl)cc1C(=O)NC1CCN(CCCOc2ccc(F)cc2)CC1OC (centres undefined) [CISAPRIDE] |  |  |  | > 10 | AC50 [7]: > 10 µM; AC50 [5]: > 30 µM
10 | CC(CN(C)C)C(C)(O)Cc1ccc(Cl)cc1 (centres undefined) [CLOBUTINOL] |  |  | > 30 |  | 
11 | CCOC(=O)C(C)(C)Oc1ccc(Cl)cc1 [CLOFIBRATE] |  |  |  | > 10 | AC50 [7]: > 10 µM; AC50 [5]: > 30 µM
12 | CCCCOc1ccc(C(=O)CCN2CCCCC2)cc1 [DYCLONINE] |  |  |  | > 10 | AC50 [8]: > 10 µM; AC50 [7]: > 10 µM; AC50 [5]: > 30 µM
13 | CC(C)NC[C@H](O)COc1ccc(CC(N)=O)cc1 [ESATENOLOL] |  |  |  | > 10 | AC50 [8]: > 10 µM; AC50 [5]: > 30 µM
14 | CCOC(=O)c1ncn2c1CN(C)C(=O)c1cc(F)ccc1-2 [FLUMAZENIL] | > 30 | > 30 | > 10 |  | 
15 | CC/C=C\C/C=C\C/C=C\C/C=C\C/C=C\CCCC(=O)OCC [ICOSAPENT ETHYL] | > 30 | 23 |  |  | 
16 | NNC(=O)c1ccncc1 [ISONIAZID] |  |  |  | > 10 | AC50 [8]: > 10 µM; AC50 [7]: > 10 µM; AC50 [5]: > 30 µM
17 | CC(=O)[C@H]1CC[C@H]2[C@@H]3C[C@H](C)C4=CC(=O)CC[C@]4(C)[C@H]3[C@@H](O)C[C@]12C [MEDRYSONE] |  |  | 0.257 |  | 
18 | Cc1ccnc2c1NC(=O)c1cccnc1N2C1CC1 [NEVIRAPINE] |  |  |  | > 10 | AC50 [8]: > 10 µM; AC50 [7]: > 10 µM; AC50 [5]: > 30 µM
19 | O=C(NCCO[N+](=O)[O-])c1cccnc1 [NICORANDIL] |  |  |  |  | AC50 [6]: > 30 µM
20 | O=C(c1cc(Cc2n[nH]c(=O)c3ccccc23)ccc1F)N1CCN(C(=O)C2CC2)CC1 [OLAPARIB] |  |  | > 30 |  | 

Row | SMILES | AC50 [1] [µM] | AC50 [2] [µM] | AC50 [3] [µM] | AC50 [4] [µM] | further results
21 | CO[C@H]1C[C@H](O[C@H]2CC[C@@]3(C)[C@H](CC[C@@H]4[C@@H]3CC[C@]3(C)[C@@H](C5=CC(=O)OC5)[C@@H](OC(C)=O)C[C@]43O)C2)O[C@@H](C)[C@@H]1O [OLEANDRIN] |  |  |  |  | AC50 [6]: > 30 µM
22 | O=c1[nH]c2ccccc2n1CCCN1CCN(C(c2ccccc2)c2ccccc2)CC1 [OXATOMIDE] |  |  |  |  | AC50 [6]: > 30 µM
23 | COc1cc2[nH]c(C)c(CCN3CCN(c4ccccc4)CC3)c2cc1OC [OXYPERTINE] |  |  |  |  | AC50 [6]: > 30 µM
24 | Fc1ccc([C@@H]2CCNC[C@H]2COc2ccc3c(c2)OCO3)cc1 [PAROXETINE] |  |  | > 30 | > 10 | AC50 [7]: > 10 µM; AC50 [5]: > 30 µM
25 | c1ccc(C2(N3CCCCC3)CCCCC2)cc1 [PHENCYCLIDINE] | > 30 | > 30 |  |  | AC50 [6]: > 30 µM
26 | OC[C@H]1O[C@@H](Oc2cc(O)cc(/C=C/c3ccc(O)cc3)c2)[C@H](O)[C@@H](O)[C@@H]1O [PICEID] | > 30 | > 30 |  |  | 
27 | O=C1CC[C@@H](C(=O)N2CSC[C@H]2C(=O)O)N1 [PIDOTIMOD] ([pGlu]-[Thz]-OH) | > 30 | > 30 |  |  | 
28 | COc1cc(C(=O)OCc2cccc(COC(=O)c3cc(OC)c(OC)c(OC)c3)n2)cc(OC)c1OC [PIROZADIL] | > 30 | > 30 |  |  | AC50 [6]: > 30 µM
29 | CCCN(CCC)S(=O)(=O)c1ccc(C(=O)O)cc1 [PROBENECID] |  |  | > 10 |  | 
30 | CCC(NC(C)C)C(O)c1ccc(O)c2[nH]c(=O)ccc12 (centres undefined) [PROCATEROL] | > 30 | > 30 |  |  | AC50 [7]: > 30 µM
31 | CCC(=O)O[C@](Cc1ccccc1)(c1ccccc1)[C@H](C)CN(C)C [PROPOXYPHENE] |  |  |  | > 10 | AC50 [8]: > 10 µM; AC50 [7]: > 10 µM; AC50 [5]: > 30 µM
32 | CCc1nc(N)nc(N)c1-c1ccc(Cl)cc1 [PYRIMETHAMINE] |  |  |  | > 10 | 
33 | O=c1c(O)c(-c2ccc(O)c(O)c2)oc2cc(O)cc(O)c12 [QUERCETIN] |  |  |  | > 10 | AC50 [7]: > 10 µM; AC50 [5]: 14.1 µM
34 | CCN1CCCC1CNC(=O)c1cc(S(=O)(=O)CC)ccc1OC (centres undefined) [SULTOPRIDE] | > 30 | > 30 |  |  | AC50 [6]: > 30 µM
35 | C=CCN1CCc2nc(N)sc2CC1 [TALIPEXOLE] | > 30 | > 30 |  |  | 
36 | CCOC(=O)c1ccc(C#Cc2ccc3c(c2)C(C)(C)CCS3)nc1 [TAZAROTENE] |  |  |  | > 10 | AC50 [5]: > 30 µM
37 | CCOC(=O)[C@@H](N)Cc1ccc(-c2cc(O[C@H](c3ccc(Cl)cc3-n3ccc(C)n3)C(F)(F)F)nc(N)n2)cc1 [TELOTRISTAT ETHYL] | > 30 | > 30 |  |  | AC50 [6]: > 30 µM
38 | CC(C(=O)O)c1ccc2c(c1)CC(=O)c1ccccc1S2 (centres undefined) [ZALTOPROFEN] | > 30 | > 30 |  |  | 
39 | CC(c1cc2ccccc2s1)N(O)C(N)=O (centres undefined) [ZILEUTON] |  |  | > 30 |  | 
